# Measured values taken from ChEMBL document CHEMBL1201862, “PubChem BioAssay data set” (2004).
#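 Step 1: Grow cells in 96-well plates. Step 2: Expose to compound for 48 hours at 5 concentrations. Step 3: Interpolate endpoints linearly; if unreached, use highest concentration. GI50 is the concentration that inhibits growth by half.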 Active and inactive are the calls of the source. Rule as the data show it: active = GI50 up to about 1.1 µM and inactive = higher.
# Columns and labels:
# Test in all cases: NCI-60 cell line screen, 48 h
# MOLT-4 = test system: MOLT-4
# SNB-19 = test system: SNB-19
# RXF 393 = test system: RXF 393
# SR = test system: SR
# EKVX = test system: EKVX
# HCC 2998 = test system: HCC 2998
# SK-OV-3 = test system: SK-OV-3
# MDA-MB-435 = test system: MDA-MB-435
# SK-MEL-28 = test system: SK-MEL-28
# SN12C = test system: SN12C
# SNB-75 = test system: SNB-75
# A498 = test system: A498
# PC-3 = test system: PC-3
# ACHN = test system: ACHN
# MDA-N = test system: MDA-N
# COLO 205 = test system: COLO 205
# TK-10 = test system: TK-10
# SW-620 = test system: SW-620
# UACC-257 = test system: UACC-257
# K562 = test system: K562
# SK-MEL-2 = test system: SK-MEL-2
# CCRF-CEM = test system: CCRF-CEM
# HCT-116 = test system: HCT-116
# U-251 = test system: U-251
# UACC-62 = test system: UACC-62
# NCI-H226 = test system: NCI-H226
# OVCAR-8 = test system: OVCAR-8
# IGROV-1 = test system: IGROV-1
# Hs-578T = test system: Hs-578T
# NCI-H460 = test system: NCI-H460
# OVCAR-5 = test system: OVCAR-5
# LOX IMVI = test system: LOX IMVI
# SF-295 = test system: SF-295
# SK-MEL-5 = test system: SK-MEL-5
# HOP-92 = test system: HOP-92
# OVCAR-3 = test system: OVCAR-3
# CAKI-1 = test system: CAKI-1
# RPMI-8226 = test system: RPMI-8226
# UO-31 = test system: UO-31
# 786-0 = test system: 786-0
# HCT-15 = test system: HCT-15
# NCI-H522 = test system: NCI-H522
# M14 = test system: M14
# HOP-62 = test system: HOP-62
# DU-145 = test system: DU-145
# T47D = test system: T47D
# MDA-MB-231 = test system: MDA-MB-231
# MCF7 = test system: MCF7
# OVCAR-4 = test system: OVCAR-4
# A549 = test system: A549
# KM12 = test system: KM12
# SF-539 = test system: SF-539
# BT-549 = test system: BT-549
# SF-268 = test system: SF-268
# NCI/ADR-RES = test system: NCI/ADR-RES
# HT-29 = test system: HT-29
# HL-60 = test system: HL-60
# Malme-3M = test system: Malme-3M
# NCI-H23 = test system: NCI-H23
smiles,measurement,setting,value
CCOC(=O)C1C(=O)CC(O)(c2ccccc2)C(C(=O)OCC)C1c1ccc(OC)cc1 (configuration not stated),GI50,MOLT-4,17.5 µM (inactive)
same,GI50,SNB-19,22.5 µM (inactive)
same,GI50,RXF 393,13.6 µM (inactive)
same,GI50,SR,4.23 µM (inactive)
same,GI50,EKVX,> 50.7 µM (inactive)
same,GI50,HCC 2998,37.9 µM (inactive)
same,GI50,SK-OV-3,15.8 µM (inactive)
same,GI50,MDA-MB-435,3.24 µM (inactive)
same,GI50,SK-MEL-28,28.8 µM (inactive)
same,GI50,SN12C,40.7 µM (inactive)
same,GI50,SNB-75,0.479 µM (active)
same,GI50,A498,42.2 µM (inactive)
same,GI50,PC-3,16.4 µM (inactive)
same,GI50,ACHN,43.4 µM (inactive)
same,GI50,MDA-N,3.18 µM (inactive)
same,GI50,COLO 205,12.8 µM (inactive)
same,GI50,TK-10,65.5 µM (inactive)
same,GI50,SW-620,12.2 µM (inactive)
same,GI50,UACC-257,58.3 µM (inactive)
same,GI50,K562,5.27 µM (inactive)
same,GI50,SK-MEL-2,20.1 µM (inactive)
same,GI50,CCRF-CEM,18.2 µM (inactive)
same,GI50,HCT-116,4.94 µM (inactive)
same,GI50,U-251,16 µM (inactive)
same,GI50,UACC-62,21.9 µM (inactive)
same,GI50,NCI-H226,32.4 µM (inactive)
same,GI50,OVCAR-8,33.4 µM (inactive)
same,GI50,IGROV-1,20 µM (inactive)
same,GI50,Hs-578T,0.695 µM (active)
same,GI50,NCI-H460,18.2 µM (inactive)
same,GI50,OVCAR-5,50.6 µM (inactive)
same,GI50,LOX IMVI,18.7 µM (inactive)
same,GI50,SF-295,3.24 µM (inactive)
same,GI50,SK-MEL-5,19.1 µM (inactive)
same,GI50,HOP-92,15.3 µM (inactive)
same,GI50,OVCAR-3,12.4 µM (inactive)
same,GI50,CAKI-1,44.8 µM (inactive)
same,GI50,RPMI-8226,13.8 µM (inactive)
same,GI50,UO-31,61.2 µM (inactive)
same,GI50,786-0,22.6 µM (inactive)
same,GI50,HCT-15,19.4 µM
same,GI50,NCI-H522,5.69 µM (inactive)
same,GI50,M14,10.4 µM (inactive)
same,GI50,HOP-62,25.5 µM (inactive)
same,GI50,DU-145,47.3 µM (inactive)
same,GI50,T47D,42.2 µM (inactive)
same,GI50,MDA-MB-231,22.2 µM (inactive)
same,GI50,MCF7,27 µM (inactive)
same,GI50,OVCAR-4,28.6 µM (inactive)
same,GI50,A549,47 µM (inactive)
same,GI50,KM12,6.31 µM (inactive)
same,GI50,SF-539,15.6 µM (inactive)
same,GI50,BT-549,34.7 µM (inactive)
same,GI50,SF-268,30.1 µM (inactive)
same,GI50,NCI/ADR-RES,19.6 µM (inactive)
same,GI50,HT-29,6.82 µM (inactive)
same,GI50,HL-60,10.5 µM (inactive)
same,GI50,Malme-3M,26.2 µM (inactive)
same,GI50,NCI-H23,31 µM (inactive)
Cc1cc2[nH]c(Cl)c(/C=C3\C(=O)Nc4ccccc43)c2cc1O,GI50,MOLT-4,1.46 µM (inactive)
same,GI50,SNB-19,3.27 µM (inactive)
same,GI50,RXF 393,2.25 µM (inactive)
same,GI50,SR,0.228 µM (active)
same,GI50,EKVX,4.7 µM (inactive)
same,GI50,HCC 2998,4.2 µM (inactive)
same,GI50,SK-OV-3,4.83 µM (inactive)
same,GI50,MDA-MB-435,0.29 µM (active)
same,GI50,SK-MEL-28,9.71 µM (inactive)
same,GI50,SN12C,3.38 µM (inactive)
same,GI50,SNB-75,3.45 µM (inactive)
same,GI50,A498,4.05 µM (inactive)
same,GI50,PC-3,2.2 µM (inactive)
same,GI50,ACHN,6.53 µM (inactive)
same,GI50,MDA-N,0.379 µM (active)
same,GI50,COLO 205,13.8 µM (inactive)
same,GI50,TK-10,9.71 µM (inactive)
same,GI50,SW-620,1.81 µM (inactive)
same,GI50,UACC-257,11.2 µM (inactive)
same,GI50,K562,0.957 µM (active)
same,GI50,SK-MEL-2,2.1 µM (inactive)
same,GI50,CCRF-CEM,1.2 µM (inactive)
same,GI50,HCT-116,2.8 µM (inactive)
same,GI50,U-251,2.26 µM (inactive)
same,GI50,UACC-62,1.23 µM (inactive)
same,GI50,NCI-H226,0.542 µM (active)
same,GI50,OVCAR-8,3.75 µM (inactive)
same,GI50,IGROV-1,1.8 µM (inactive)
same,GI50,Hs-578T,4.18 µM (inactive)
same,GI50,NCI-H460,3.91 µM (inactive)
same,GI50,OVCAR-5,6.46 µM (inactive)
same,GI50,LOX IMVI,3.16 µM (inactive)
same,GI50,SF-295,2.79 µM (inactive)
same,GI50,SK-MEL-5,1.2 µM (inactive)
same,GI50,HOP-92,8.93 µM (inactive)
same,GI50,OVCAR-3,4.61 µM (inactive)
same,GI50,CAKI-1,5.25 µM (inactive)
same,GI50,RPMI-8226,2.7 µM (inactive)
same,GI50,UO-31,4.45 µM (inactive)
same,GI50,786-0,5.4 µM (inactive)
same,GI50,HCT-15,1.66 µM
same,GI50,NCI-H522,1.5 µM (inactive)
same,GI50,M14,2.88 µM (inactive)
same,GI50,HOP-62,4.93 µM (inactive)
same,GI50,DU-145,2.86 µM (inactive)
same,GI50,T47D,10.9 µM (inactive)
same,GI50,MDA-MB-231,3.09 µM (inactive)
same,GI50,MCF7,1.88 µM (inactive)
same,GI50,OVCAR-4,7.52 µM (inactive)
same,GI50,A549,5.08 µM (inactive)
same,GI50,KM12,2.92 µM (inactive)
same,GI50,SF-539,1.17 µM (inactive)
same,GI50,BT-549,6.53 µM (inactive)
same,GI50,SF-268,4.69 µM (inactive)
same,GI50,NCI/ADR-RES,3.25 µM (inactive)
same,GI50,HT-29,4.07 µM (inactive)
same,GI50,HL-60,1.14 µM (inactive)
same,GI50,Malme-3M,1.6 µM (inactive)
same,GI50,NCI-H23,2.32 µM (inactive)
O=C(O)c1c2c(cc3c1CC(Cc1ccccc1)C3=O)CCC2 (configuration not stated),GI50,MOLT-4,96.8 µM (inactive)
same,GI50,SNB-19,> 100 µM (inactive)
same,GI50,RXF 393,> 100 µM (inactive)
same,GI50,SR,67.5 µM (inactive)
same,GI50,EKVX,> 100 µM (inactive)
same,GI50,HCC 2998,> 100 µM (inactive)
same,GI50,SK-OV-3,> 100 µM (inactive)
same,GI50,MDA-MB-435,> 100 µM (inactive)
same,GI50,SK-MEL-28,> 100 µM (inactive)
same,GI50,SN12C,> 100 µM (inactive)
same,GI50,SNB-75,> 100 µM (inactive)
same,GI50,A498,> 100 µM (inactive)
same,GI50,PC-3,64.3 µM (inactive)
same,GI50,ACHN,63 µM (inactive)
same,GI50,MDA-N,> 100 µM (inactive)
same,GI50,COLO 205,> 100 µM (inactive)
same,GI50,TK-10,> 100 µM (inactive)
same,GI50,SW-620,> 100 µM (inactive)
same,GI50,UACC-257,> 100 µM (inactive)
same,GI50,K562,75.2 µM (inactive)
same,GI50,SK-MEL-2,> 100 µM (inactive)
same,GI50,CCRF-CEM,43.7 µM (inactive)
same,GI50,HCT-116,89.9 µM (inactive)
same,GI50,U-251,> 100 µM (inactive)
same,GI50,UACC-62,> 100 µM (inactive)
same,GI50,NCI-H226,> 100 µM (inactive)
same,GI50,OVCAR-8,> 100 µM (inactive)
same,GI50,IGROV-1,> 100 µM (inactive)
same,GI50,Hs-578T,> 100 µM (inactive)
same,GI50,NCI-H460,74.8 µM (inactive)
same,GI50,OVCAR-5,> 100 µM (inactive)
same,GI50,LOX IMVI,26 µM (inactive)
same,GI50,SF-295,> 100 µM (inactive)
same,GI50,SK-MEL-5,> 100 µM (inactive)
same,GI50,HOP-92,29.5 µM (inactive)
same,GI50,OVCAR-3,> 100 µM (inactive)
same,GI50,CAKI-1,> 100 µM (inactive)
same,GI50,RPMI-8226,39.7 µM (inactive)
same,GI50,UO-31,16.6 µM (inactive)
same,GI50,786-0,> 100 µM (inactive)
same,GI50,HCT-15,41.7 µM
same,GI50,NCI-H522,74.6 µM (inactive)
same,GI50,M14,> 100 µM (inactive)
same,GI50,HOP-62,> 100 µM (inactive)
same,GI50,DU-145,> 100 µM (inactive)
same,GI50,T47D,> 100 µM (inactive)
same,GI50,MDA-MB-231,30.5 µM (inactive)
same,GI50,MCF7,> 100 µM (inactive)
same,GI50,OVCAR-4,> 100 µM (inactive)
same,GI50,A549,19.5 µM (inactive)
same,GI50,KM12,65.8 µM (inactive)
same,GI50,SF-539,76.6 µM (inactive)
same,GI50,BT-549,> 100 µM (inactive)
same,GI50,SF-268,> 100 µM (inactive)
same,GI50,NCI/ADR-RES,> 100 µM (inactive)
same,GI50,HT-29,57.8 µM (inactive)
same,GI50,HL-60,22.4 µM (inactive)
same,GI50,Malme-3M,> 100 µM (inactive)
same,GI50,NCI-H23,> 100 µM (inactive)
